# Reference: patent US10081662B2, “Modified relaxin B chain peptides” (The Florey Institute of Neuroscience and Mental Health, priority 2014, dated 2018)
# Peptide text beside a SMILES is read from it.
# Assays:
# [1] = test system: rat model of myocardial infarction; experiment: Rat model of myocardial infarction-induced heart failure; format: in vivo; conditions: vs vehicle
# Protocol: Adult male Sprague-Dawley rats weighing 250-320 g were obtained from Animal Resources Centre, Perth, Wash., Australia. The rats were group housed in a constant temperature of 22±1° C. and a relative humidity of 50-60% under a controlled light-dark cycle of 12 hours. Rats were given access to standard laboratory rat chow and drinking water ad libitum.
# Heart failure was induced as previously described (Ruchaya et al., 2014, Exp Physiol 99, 111-122). Breifly, to induce heart failure, rats were anaesthetised with an intramuscular injection of ketamine (60 mg/kg) and medetomide hydrochloride ([…]). A left sided thoracotomy through an opening between the fourth and fifth rib was performed, the heart was exteriorised and the left anterior descending coronary artery was ligated. Anaesthesia was reversed with antipamezole hydrocholide (1 mg/kg). Penicillin (1000 U) and buprenorphine (0.05 mg/kg) was administered to aid post-operative recovery. Animals were left to recover from the surgery under a heating source. Rats were individually housed after the surgery.
# Eight weeks after myocardial infarction surgery, rats were randomly assigned to 3 groups (vehicle, H2 and B7-33), re-anaesthetised (2-3% isoflurane) and an osmotic mini-pump (model 2ML4, Alzet, Cupertino, Calif.) implanted intraperitoneally. Vehicle (saline), native H2 relaxin (0.5 mg/kg/day) or B7-33 C11.23S (0.5 mg/kg/day) was continuously administered for 28 days. At the conclusion of treatment, rats were anaesthetized (sodium pentobarbitone, 60 mg/kg i.p.) and the left ventricular end-diastolic pressure determined prior to decapitation and removal of the heart for histological analysis.
# RXFP1 = molecular target: T1, RXFP1 (Homo sapiens, UniProt Q9HBX9); experiment: cAMP reporter gene assay (pCRE β-galactosidase) in HEK-293T cells transfected with RXFP1; format: cell-based; conditions: FIG. 3A, ERK data not shown
# T1 construct: expressed in transfected cells; host or cells: HEK-293T
# T1 sequence (Q9HBX9 1-757): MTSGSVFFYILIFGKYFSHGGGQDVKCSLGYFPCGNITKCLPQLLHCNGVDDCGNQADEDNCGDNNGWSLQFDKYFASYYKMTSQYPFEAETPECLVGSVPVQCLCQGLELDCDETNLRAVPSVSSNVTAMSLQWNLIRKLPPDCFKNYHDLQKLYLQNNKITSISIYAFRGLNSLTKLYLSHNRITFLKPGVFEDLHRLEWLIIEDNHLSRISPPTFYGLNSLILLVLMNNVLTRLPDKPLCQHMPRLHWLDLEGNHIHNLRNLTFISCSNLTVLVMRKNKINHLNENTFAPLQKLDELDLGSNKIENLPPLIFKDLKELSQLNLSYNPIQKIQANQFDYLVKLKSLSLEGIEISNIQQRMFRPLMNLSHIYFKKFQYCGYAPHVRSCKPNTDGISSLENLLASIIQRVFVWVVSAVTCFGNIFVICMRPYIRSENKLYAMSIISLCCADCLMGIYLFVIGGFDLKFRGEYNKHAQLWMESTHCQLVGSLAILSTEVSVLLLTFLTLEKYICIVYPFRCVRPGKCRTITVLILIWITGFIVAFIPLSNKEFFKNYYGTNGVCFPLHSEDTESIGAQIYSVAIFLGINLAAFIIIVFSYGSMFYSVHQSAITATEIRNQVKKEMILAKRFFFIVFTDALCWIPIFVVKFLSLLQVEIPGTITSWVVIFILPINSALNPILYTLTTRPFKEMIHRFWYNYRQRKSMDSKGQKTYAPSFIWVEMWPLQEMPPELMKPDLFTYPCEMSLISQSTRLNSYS
smiles,measurement,setting,value
CC[C@H](C)[C@H](NC(=O)[C@H](C)NC(=O)[C@@H](NC(=O)[C@H](CCC(N)=O)NC(=O)[C@H](C)NC(=O)[C@H](CCCNC(=N)N)NC(=O)[C@@H](NC(=O)[C@H](CC(C)C)NC(=O)[C@H](CCC(=O)O)NC(=O)[C@H](CCCNC(=N)N)NC(=O)CNC(=O)[C@H](CO)NC(=O)[C@H](CC(C)C)NC(=O)[C@H](CCCCN)NC(=O)[C@@H](NC(=O)[C@@H](N)C(C)C)[C@@H](C)CC)C(C)C)[C@@H](C)CC)C(=O)N[C@@H](CO)C(=O)NCC(=O)N[C@@H](CCSC)C(=O)N[C@@H](CO)C(=O)N[C@H](C(=O)N[C@@H](Cc1c[nH]c2ccccc12)C(=O)N[C@@H](CO)C(=O)N[C@@H](CCCCN)C(=O)N[C@@H](CCCNC(=N)N)C(=O)N[C@@H](CO)C(=O)N[C@@H](CC(C)C)C(N)=O)[C@@H](C)O [B7-33 C11.23S] (H-VIKLSGRELVRAQIAISGMSTWSKRSL-NH2),Percentage of collagen in the interstitial area of the left ventricle,[1]; 0.5 mg/kg/day i.p. mini-pump for 28 days from 8 weeks after MI,significant reduction
same,Left ventricular end-diastolic pressure (LVEDP),[1]; 12 weeks after myocardial infarction,reduced
same,Activation of cAMP and ERK signalling pathways in HEK-RXFP1 cells (in words),RXFP1,"full agonist, but with poor potency"
